According to article PMC10115881, “Disrupting the α-synuclein-ESCRT interaction with a peptide inhibitor mitigates neurodegeneration in preclinical models of Parkinson’s disease” (Nature Communications, 2023):
Where “and” joins values, the source holds several entries; their conditions need not be identical. Equal entries are not always repeated.

Key:
A53T a-syn or EV rats = experiment: Cylinder test, forelimb asymmetry; type: in vivo, rat; parameters: Forelimb asymmetry in cylinder test: scale not given here; conditions: for Forelimb asymmetry in cylinder test: individual rats
Method: Animals were secured in a stereotactic frame under isoflurane/oxygen anesthesia and ketoprofen (5 mg/kg) analgesia. The surgical site was shaved and sterilized with iodine/betadine prior to making a 2 cm incision along the midline. The scalp was exposed and a unilateral injection targeting the SN was performed at coordinates AP −5.2 mm, ML −2 mm and DV −7.5 mm with respect to the bregma as a point of reference. For each animal, a total volume of 2 μl of virus was injected at a rate of 0.5 μl/min using a microinjection pump and 10 μl Hamilton syringe with a 26-gauge needle. For A53T groups, 1 μl (low dose) or 1.34 μl (high dose) of AAV1/2-A53T a-syn (5.1 × 10^12 genomic particles/ml), 0.14 μl of AAV1/2-PDpep1.3-GFP or Scramble1.3-GFP (5.1 × 10^12 genomic particles/ml) and 0.86 μl or 0.52 μl of sterile PBS was injected; for EV groups, 1 μl (low dose) or 1.34 μl (high dose) of AAV1/2-EV (5.1 × 10^12 genomic particles/ml) replaced AAV1/2-A53T. For V1S/SV2 groups, 0.58 μl of AAV1/2-V1S (1.1 × 10^12 genomic particles/ml), 0.58 μl of AAV1/2-SV2 (1.1 × 10^12 genomic particles/ml), 0.14 μl of AAV1/2-PDpep1.3-RFP or Scramble1.3-RFP (5.1 × 10^12 genomic particles/ml) and 0.7 μl of sterile PBS was injected; for the YFP groups, 1.16 μl of AAV1/2-YFP (1.1 × 10^12 genomic particles/ml), 0.14 μl of AAV1/2-PDpep1.3-RFP or Scramble1.3-RFP (5.1 × 10^12 genomic particles/ml) and 0.7 μl of sterile PBS was injected. At the end of virus injection, the needle remained in place for 5 min before gradual removal.
Spontaneous forepaw use was evaluated using the cylinder test 1 day prior to stereotactic AAV injection, at 21 days post-injection, and at 41 days post-injection. Following overnight food restriction, individual rats with right paws marked black were placed into a glass cylinder in front of two mirrors and videos recorded. An observer blinded to treatment conditions later scored the videos by recording whether animals used their left forepaw, right forepaw, or both forepaws to touch the inner glass surface upon rearing. A total of 5 min of video recording was scored and a minimum of 10 total touches was required for data inclusion.

pS129 a-syn puncta = experiment: PFF-induced a-syn seeding, pS129 a-syn puncta in cortical neurons; type: cell-based, rat
Method: PFFs synthesized from recombinant human a-syn were added to primary neuronal cultures to seed recruitment of endogenous a-syn into pS129 a-syn^+ aggregates. Recombinant human a-syn PFFs were purchased from StressMarq Biosciences (SPR-322B). Cells were plated on poly-D-lysine coated glass coverslips in 24-well cell culture plates at a density of 5 × 10^5 cells/well, and incubated at 37 °C in 5% CO2 with half media changes every 3 days. […] On day 8 post-isolation, cells were treated with 1.5 µg of recombinant a-syn PFFs. […]
Confocal images of primary cortical neurons, iPSC-derived dopaminergic neurons, and LAMP1 staining within the SN were processed using Imaris software (Oxford instruments). […] Mean pixel intensity per GFP^+ cell (for experiments using GFP-tagged peptides) or RFP^+ cell (for experiments using RFP-tagged peptides) was calculated for a-syn or LAMP1 signal using the software’s surfaces module. The software’s surfaces module was used to identify GFP^+/NeuN^+ cells, and number of pS129 a-syn^+ puncta per GFP^+/NeuN^+ cortical neuron was counted using the software’s spots module. Mean pixel intensity per RFP^+/NeuN^+ cortical neuron was calculated for Rab7, cathepsin B, or cathepsin D signals using the software’s surfaces module. […]

Δa-syn(103–140) = experiment: Truncated a-syn (103-140 lacking) HA immunofluorescence in rat cortical neurons; type: cell-based; conditions: a-syn lacking amino acids 103–140
Source text: Adeno-associated virus (AAV) of a 1/2 serotype was used to express A53T a-syn (AAV-A53T), a truncated version of A53T a-syn lacking amino acids 103–140 (Δa-syn(103–140)), and WT a-syn, fused to either the N-terminal half of YFP (AAV-V1S) or the C-terminal half of YFP (AAV-SV2), all under the control of the CAG promoter, a hybrid of the chicken beta-actin (CBA) promoter fused with the cytomegalovirus (CMV) immediate early enhancer sequence (GeneDetect Ltd.)[46].
Pregnant rats (E17) of the Sprague-Dawley strain were purchased from Envigo. Embryos were surgically removed from the mothers and cortices dissected in Hanks Balanced salt solution (Gibco). […]
After fixation, cells were permeabilized with 0.2% Triton-X-100 for 15 min, washed three times with PBS and then incubated with blocking solution (1% BSA, 22.52 mg/mL glycine, 0.1% Tween-20 in PBS or 0.4% saponin, 1% BSA, and 5% goat or donkey serum in PBS) for 1 h. […] Following another three washes with PBS, nuclei were counterstained with DAPI (ThermoFisher) and then coverslips were mounted on slides using Dako fluorescence mounting medium (Agilent) and sealed using clear nail varnish.

Question: How did the “Forelimb asymmetry in cylinder test” value (A53T a-syn or EV rats; A53T, 3 WPI) turn out when DEEIERQLKALG [PDpep1.3] was run?
Answer: -28.57 and 24.32 and 52.38 and 33.3333 and 9.524 and -2.857

Question: And the “Forelimb asymmetry in cylinder test” value (A53T a-syn or EV rats; A53T, 6 WPI)?
Answer: -12.5 (2×) and 25.93 and 21.43 and 6.98

Question: And the “Forelimb asymmetry” value (A53T a-syn or EV rats; A53T, 6 weeks)?
Answer: comparable to controls

Question: And the “Forelimb asymmetry in cylinder test” value (A53T a-syn or EV rats; A53T, baseline (prior to injection))?
Answer: -7.41 and 24.14 and 18.18 and 22.22 and -2.4 and -27.78 and 19.4

Question: What about the “Forelimb asymmetry in cylinder test” value (A53T a-syn or EV rats; EV, 3 WPI) of the same sequence?
Answer: 3.448 and -28.5714 and 80.9524 and -6.849 and 10.3448 and -26.6667 and 19.4444

Question: And the “Forelimb asymmetry in cylinder test” value (A53T a-syn or EV rats; EV, 6 WPI)?
Answer: 20 and -14.29 and 37.5 and -3.23 and 75 and -33.33 and 3.03

Question: What about the “Forelimb asymmetry in cylinder test” value (A53T a-syn or EV rats; EV, baseline (prior to injection)) of the same sequence?
Answer: 21.95 and -4 and 13.16 and -24.75 and 1.82 and 24.14 and 9.8

Question: And the “Effect on endogenous a-syn aggregates” value (pS129 a-syn puncta)?
Answer: reduced the number of endogenous a-syn aggregates

Question: What about the “Effect on truncated a-syn levels” value (Δa-syn(103–140)) of the same sequence?
Answer: did not reduce levels of this truncated a-syn
